One series relates to Ser. marcescens ES-75. In words: Antibacterial activities, MIC. It is filed as cell-based.
A further series concerns Pseud. aeruginosa EP-01. In words: Antibacterial activities, MIC. Type of series: cell-based.
The subject of a further series is Morg. morganii EP-14. In words: Antibacterial activities, MIC. It is filed as cell-based.
The next series concerns Staph. aureus 209-P. In words: Antibacterial activities, MIC. It is filed as cell-based.
A further series concerns Escher. coli NIHJ. In words: Antibacterial activities, MIC. It is filed as cell-based.
Another series concerns Kleb Pneumoniae EK-6. In words: Antibacterial activities, MIC. It is filed as cell-based.
The next series can be described thus: in vivo. To be noted: mouse, iv.
Where [1] appears, read: Serratia marcescens, ES75, read-out: MIC.
[2] abbreviates: Pseudomonas aeruginosa, EP01, Pseud. aeruginosa EP-01, read-out: MIC.
The mark [3] stands for this setting: Morganella morganii, EP14, Morg. morganii EP-14, read-out: MIC.
Where [4] appears, read: Staphylococcus aureus, read-out: MIC.
Setting [5] is: Escherichia coli, read-out: MIC.

Values after ≈ are worked out from the molar mass of the structure shown. Where two headings read alike, the source gives them in different places.

The term MIC denotes the lowest concentration found to suppress growth. The term LD50 denotes the dose expected to kill half of the subjects tested. As for `CO/N=C(\C(=O)N[C@@H]1C(=O)N2C(C(=O)[O-])=C(/C=C/C[N+](C)(C)CC(N)=O)CS[C@H]12)c1nsc(N)n1` [Example 1, 7β-[2-(5-Amino-1,2,4-thiadiazol-3-yl)-(Z)-2-methoxyiminoacetamido]-3-[(E)-3-(carbamoylmethyldimethylammonio)-1-propen-1-yl)-3-cephem-4-carboxylate], the MIC in the series with Ser. marcescens ES-75 (setting [1]) worked out at 0.1 µg/mL (≈ 0.191 µM); in the series with Pseud. aeruginosa EP-01 (setting [2]), 0.8 µg/mL (≈ 1.53 µM); with Morg. morganii EP-14 (setting [3]), 0.05 µg/mL (≈ 0.0953 µM); with Staph. aureus 209-P (setting [4]), 0.4 µg/mL (≈ 0.763 µM); in the series on Escher. coli NIHJ (setting [5]), 0.05 µg/mL (≈ 0.0953 µM); in the series with Kleb Pneumoniae EK-6 (read-out: MIC), 0.05 µg/mL (≈ 0.0953 µM). In “in vivo”, this compound gave an LD50 of at least 3000 mg/kg.
Take `CO/N=C(\C(=O)N[C@@H]1C(=O)N2C(C(=O)[O-])=C(/C=C/C[N+](C)(C)Cc3nnco3)CS[C@H]12)c1nsc(N)n1` [Example 20, 7β-[2-(5-Amino-1,2,4-thiadiazol-3-yl)-(Z)-2-methoxyiminoacetamido]-3-[(E)-3-[(1,3,4-oxadiazol-2-yl)methyldimethylammonio]-1-propen-1-yl]-3-cephem-4-carboxylate]: the minimal inhibitory concentration (MIC) in the series with Ser. marcescens ES-75 (setting [1]) is 0.1 µg/mL (≈ 0.182 µM); with Pseud. aeruginosa EP-01 (setting [2]) it was 0.8 µg/mL (≈ 1.46 µM); with Morg. morganii EP-14 (setting [3]), 0.05 µg/mL (≈ 0.091 µM); in the series with Staph. aureus 209-P (setting [4]) it was 0.4 µg/mL (≈ 0.728 µM); with Escher. coli NIHJ (setting [5]), at most 0.025 µg/mL; with Kleb Pneumoniae EK-6 (read-out: MIC), at most 0.025 µg/mL. This compound yielded an LD50 in the series “in vivo” of at least 3000 mg/kg.
For `CO/N=C(\C(=O)N[C@@H]1C(=O)N2C(C(=O)[O-])=C(/C=C/C[N+]3(C)CCN(C)CC3)CS[C@H]12)c1nsc(N)n1` [Example 33, 7β-[2-(5-Amino-1,2,4-thiadiazol-3-yl)-(Z)-2-methoxyiminoacetamido]-3-[(E)-3-(1,4-dimethyl-1-piperazinio)-1-propen-1-yl]-3-cephem-4-carboxylate], the MIC with Ser. marcescens ES-75 (setting [1]) is 0.05 µg/mL (≈ 0.0932 µM); in the series with Pseud. aeruginosa EP-01 (setting [2]) it was 1.56 µg/mL (≈ 2.91 µM); in the series on Morg. morganii EP-14 (setting [3]), at most 0.025 µg/mL; in the series with Staph. aureus 209-P (setting [4]), 0.2 µg/mL (≈ 0.373 µM); in the series with Escher. coli NIHJ (setting [5]), at most 0.025 µg/mL; with Kleb Pneumoniae EK-6 (read-out: MIC), at most 0.025 µg/mL. The compound also had an LD50 in the series “in vivo” of at least 3000 mg/kg.
As for `CO/N=C(\C(=O)N[C@@H]1C(=O)N2C(C(=O)[O-])=C(/C=C/C[N+](C)(C)[C@H](CO)C(N)=O)CS[C@H]12)c1nsc(N)n1` [Example 39, 7β-[2-(5-Amino-1,2,4-thiadiazol-3-yl)-(Z)-2-methoxyiminoacetamide]-3-[(E)-3-[(1R-carbamoyl-2-hydroxyethyl)dimethylammonio]-1-propenyl]-3-cephem-4-carboxylate], the MIC with Ser. marcescens ES-75 (setting [1]) is 0.1 µg/mL (≈ 0.18 µM); in the series on Pseud. aeruginosa EP-01 (setting [2]) it was 0.8 µg/mL (≈ 1.44 µM); in the series with Morg. morganii EP-14 (setting [3]) it was 0.05 µg/mL (≈ 0.0902 µM); with Staph. aureus 209-P (setting [4]), 0.4 µg/mL (≈ 0.721 µM); in the series on Escher. coli NIHJ (setting [5]) it was 0.05 µg/mL (≈ 0.0902 µM); with Kleb Pneumoniae EK-6 (read-out: MIC), at most 0.025 µg/mL. In addition, the LD50 in the series “in vivo” is at least 3000 mg/kg.
`CC[N+](C)(C/C=C/C1=C(C(=O)[O-])N2C(=O)[C@@H](NC(=O)/C(=N\OC)c3nsc(N)n3)[C@H]2SC1)CC(N)=O` (stereo partly drawn) [Example 40]: the MIC with Ser. marcescens ES-75 (setting [1]) is 0.05 µg/mL (≈ 0.0928 µM); in the series on Pseud. aeruginosa EP-01 (setting [2]) it was 0.8 µg/mL (≈ 1.49 µM); in the series with Morg. morganii EP-14 (setting [3]), at most 0.025 µg/mL; in the series with Staph. aureus 209-P (setting [4]) it was 0.2 µg/mL (≈ 0.371 µM); in the series on Escher. coli NIHJ (setting [5]), at most 0.025 µg/mL; in the series with Kleb Pneumoniae EK-6 (read-out: MIC), at most 0.025 µg/mL. The LD50 in “in vivo” is at least 3000 mg/kg.
Consider `CO/N=C(\C(=O)N[C@@H]1C(=O)N2C(C(=O)[O-])=C(/C=C/C[N+]34CCOC(C)(C3)OCC4)CS[C@H]12)c1nsc(N)n1` [Example 41, 7β-[2-(5-Amino-1,2,4-thiadiazol-3-yl)-(Z)-2-methoxyiminoacetamide]-3-[(E)-3-(5-aza-1-methyl-2,8-diozabicyclo[3,3,1]nonan-5-io)-1-propenyl]-3-cephem-4-carboxylate], for which the MIC in the series with Ser. marcescens ES-75 (setting [1]) is 0.1 µg/mL (≈ 0.177 µM); with Pseud. aeruginosa EP-01 (setting [2]), 1.56 µg/mL (≈ 2.76 µM); in the series on Morg. morganii EP-14 (setting [3]) it was 0.05 µg/mL (≈ 0.0884 µM); with Staph. aureus 209-P (setting [4]) it was 0.4 µg/mL (≈ 0.707 µM); in the series on Escher. coli NIHJ (setting [5]) it was 0.05 µg/mL (≈ 0.0884 µM); with Kleb Pneumoniae EK-6 (read-out: MIC), 0.05 µg/mL (≈ 0.0884 µM). Further, the LD50 in the series “in vivo” was at least 3000 mg/kg.
On to `CO/N=C(\C(=O)N[C@@H]1C(=O)N2C(C(=O)[O-])=C(/C=C/C[N+]3(CCO)CCC(C(N)=O)CC3)CS[C@H]12)c1nsc(N)n1` (stereo partly drawn) [Example 44-2], for which the MIC was 0.05 µg/mL (≈ 0.0841 µM) against Ser. marcescens ES-75; 0.8 µg/mL (≈ 1.35 µM) against Pseud. aeruginosa EP-01 (Pseud. aeruginosa EP-01); at most 0.025 µg/mL in the series with Morg. morganii EP-14 (Morg. morganii EP-14); 0.4 µg/mL (≈ 0.673 µM) in the series with Staph. aureus 209-P; at most 0.025 µg/mL against Escher. coli NIHJ; at most 0.025 µg/mL against Kleb Pneumoniae EK-6.
On to `CO/N=C(\C(=O)N[C@@H]1C(=O)N2C(C(=O)[O-])=C(/C=C/C[N+]3(CC(N)=O)CC[C@@H](O)C3)CS[C@H]12)c1nsc(N)n1` (stereo partly drawn) [Example 45-1], for which the MIC with Ser. marcescens ES-75 (setting [1]) is 0.05 µg/mL (≈ 0.0882 µM); with Pseud. aeruginosa EP-01 (setting [2]), 0.8 µg/mL (≈ 1.41 µM); in the series with Morg. morganii EP-14 (setting [3]), at most 0.025 µg/mL; in the series on Staph. aureus 209-P (setting [4]) it was 0.4 µg/mL (≈ 0.706 µM); with Escher. coli NIHJ (setting [5]) it was at most 0.025 µg/mL; in the series with Kleb Pneumoniae EK-6 (read-out: MIC) it was at most 0.025 µg/mL.

These data come from US5373000A, “7Beta-(thiadiazolyl)-2-iminoacetamido-3cephem compounds” (Eisai Co., Ltd., priority 1985, dated 1994).
